Experimental data as given in patent publication US20030207843A1, “Treatment of drug-resistant human immunodeficiency virus infection” (priority 1999, published 2003).

Experiments:
Assay type in all cases: cell-based
HIV-1LAI S117T/L214F = assay: p24 reduction assay in MT-2 cells, S117T/L214F; conditions: Example 6; recombinant virus encoding S117T plus L214F
Method: (§1) Cells. MT-2 cells (AIDS Research and Reference Reagent Program, National Institute of Allergy and Infectious Diseases, National Institutes of Health) were maintained in RPMI 1640 supplemented with 10% fetal bovine serum (FBS; JRH Biosciences, Lenexa, Kans.), 10 mM HEPES buffer, 50 IU/ml penicillin and 50 μg/ml streptomycin.
(§2) Antiviral Susceptibility Assays. The antiviral activity of each compound was determined by inoculating MT-2 cells with HIV-1LAI at a multiplicity of infection (MOI) of 0.01 TCID50/cell, followed by incubation in the presence of three-fold serial drug dilutions (3 wells per dilution) (see Mellors, et. al., Antimicrob. Agents Chemother. 39:1087-1092). Five or seven days after infection, culture supernatants were harvested, lysed with 0.5% triton-X 100 and assayed for p24 antigen concentration using a commercial ELISA assay (DuPont, NEN Products, Wilmington, Del.). The antiviral activity of the compounds is expressed as the IC50, which is the concentration required to inhibit 50% of p24 antigen production. The fold-resistance of a test virus is calculated by dividing the IC50 of the test virus by the IC50 of the HIV-1LAI control virus.
(§3) Generation of Mutant Recombinant HIV-1. HIV-1 containing the desired mutations were generated by oligonucleotide directed mutagenesis (Altered Sites II, Promega) as previously described (Mellors, et. al., Molecular Pharm. 41:446-451). After mutagenesis, mutant RT was subcloned into the pxxHIV-1LAI cloning vector using the silent XmaI and XbaI restriction sites located at the 5′ and 3′ ends of RT. Clones were DNA sequenced to verify the presence of the desired mutation(s) and electroporated into MT-2 cells as described above to generate infectious mutant recombinant HIV-1.
Mutant RT was generated via oligonucleotide-directed mutagenesis and ligated into the pXXHIV-1LAI cloning vector. […]
(§4) Recombinant viruses containing the mutations selected by invention compounds were also evaluated for their susceptibility to AZT, as shown in Table 8.

[1] = tested on: HIV-1LAI selected with DB-PFA, passage 18 (S117T, L214F); assay: Susceptibility of virus selected in vitro with DB-PFA
Method: as §2
Selection of Resistant Viruses. […] Viral cytopathic effects (CPE) were monitored daily. […] The passaged virus was monitored regularly for a reduction in susceptibility to the compounds by determining the EC50 relative to unpassaged HIV-1LAI (Mellors, et. al., Antimicrob. Agents Chemother. 39:1087-1092). […]

HIV-1LAI S117T = assay: p24 reduction assay in MT-2 cells, S117T; conditions: Example 6, recombinant virus encoding S117T
Method: as §1, §2, §3
Mutant RT was generated via oligonucleotide-directed mutagenesis and ligated into the pXXHIV-1LAI cloning vector. Cloning was facilitated by the presence of two silent restriction sites at the 5′ and 3′ ends (Xma1 and Xba1, respectively) of pXXHIV-1LAI RT. Infectious mutant recombinant HIV-1 was generated by electroporating MT-2 cells with mutated pXXHIV-1LAI clones. The presence of the desired mutations was verified by DNA sequencing.
DNA sequencing identified two mutations in RT: S117T and L214F.
as §4

[2] = tested on: HIV-1LAI (wild type, control); assay: p24 reduction assay in MT-2 cells, wild type virus; conditions: Table 6; baseline virus HIV-1LAI passage 0; read-out: EC50
Method: as §1
Viruses. Stock virus was prepared by electroporating (BIO-RAD Gene Pulser®, Hercules, Calif.) MT-2 cells (1.3×10^7 cells) with 5-10 μg of plasmid DNA encoding a proviral clone of HIV-1LAI (see Nguyen, et. al., Antimicrob. Agents Chemother. 38:2409-2414, and Peden, et. al., Virology 185: 661-672.). At peak cytopathic effect (generally 5-7 days post-transfection), culture supernatants were harvested and stored at −80° C. Viral infectivity titers were determined in threefold endpoint dilution assays conducted in MT-2 cells (six wells per dilution). The 50% tissue culture infective dose (TCID50) was calculated using the Reed and Muench equation (see Reed, et. al., Am. J. Hyg. 27:493-496).
as §2, with “[…],” for “was determined by inoculating MT-2 cells with HIV-1LAI at a multiplicity of infection (MOI) of 0.01 TCID50/cell,”
Cultures of MT-2 cells infected with either wild type (xxLAI) or with the drug-resistant strains of HIV-1 listed above were treated with lipid analogs of PFA (B-PFA, MB-PFA, or EB-PFA). The μM concentration required to produce 50% inhibition of replication of the drug-resistant strain of HIV (EC50) was determined as shown in Table 1. Drug effects were measured by assaying p24 (a viral protein) in the culture medium.

In the case of “1-O-octadecyl-propanediol-3-PFA [DB-PFA]”, the Fold resistance (HIV-1LAI S117T/L214F) is reported as 9.7 fold, the EC50 ([1]; Table 6, passage 18 (S117T, L214F)) is reported as 8.97 µM and the Fold resist. ([1]; Table 6, passage 18, relative to passage 0) is reported as 10.8. For the same substance, the Fold resistance (HIV-1LAI S117T) was 10.0 fold, the EC50 (HIV-1LAI S117T; read-out: EC50) was 9 µM and the EC50 [2] was 0.83 µM.
